Measurements as given in patent US9301951B2 (Ardelyx, Inc., priority 2010, dated 2016).

System: 5/6 nephrectomy (5/6Nx) rat model of CKD
Assay: In vivo evaluation in CKD rats (5/6 nephrectomy, 0.9% P diet, calcitriol)
Settings: study 1, drug in chow, 2 weeks
Method: To assess the ability of selected example compounds to impact the progression of chronic kidney disease (CKD), 5/6 nephrectomy (5/6Nx) rat model of CKD was used. […] 5/6 Nx rats were obtained from Charles River Labs (CRL, Hollister, Calif.). Upon arrival, the surgeries and extent of kidney damage in the animals were assessed by measuring serum creatinine, P, Ca, and BUN. Based on this analysis, rats with inconsistent kidney function were removed from the study and the remainder of the cohort was divided in to evenly stratified test groups. The remaining animals were then placed on the same synthetic diet used in the drug-in-chow studies (Example 350), except the P levels were adjusted to 0.9% P. Drugs are blended into this chow to achieve the required dosing rate. At this time, rats were also started on an activated Vitamin D regimen in which they were injected intraperitoneally with calcitriol at 80 ng/kg three times a week. Once a week, serum was collected via retro orbital bleeding for analysis of serum P and creatinine utilizing an ACE ALERA blood chemistry analyzer. […] Unless otherwise indicated, the data shown is from the serum collected at 2 weeks after initiation of the treatment regimen. In addition, for study #3, during the third week of the study, the animals were placed in metabolic cages for two days, and urine collected for the final 24 hours.

CCN(CC)c1ccc(NC(=O)c2cccc(C(=O)N(C)CCN3CCOCC3)c2)c(-c2cc(C(=O)NCc3cccc(C(F)(F)F)c3)ccn2)c1 [Example 25, N1-(4-(Diethylamino)-2-(4-((3-(trifluoromethyl)benzyl)carbamoyl)pyridin-2-yl)phenyl)-N3-methyl-N3-(2-morpholinoethyl)isophthalamide]
Ser CRE: 1.3 mg/dL | Ser P: 10 mg/dL | FGF23, pg/mL (serum): ~10,000 pg/mL
